Where two headings read alike, the source gives them in different places.
System: A. viscosus Tl4V-S. sanguis 34 coaggregation
Test: Coaggregation assay: inhibition of A. viscosus Tl4V-S. sanguis 34 coaggregation
Format: cell-based
Conditions: for IC50: read-out: Concentration to effect 50% inhibition of coaggregation; for Rebound of coaggregation on increasing concentration: at concentrations above the 50% inhibition concentration; for Concentration to effect 50% inhibition of coaggregation: concentration in % (weight/volume basis); for Inhibition of coaggregation (in words): qualitative
Description: This Example describes an assay for determining the inhibition of coaggregation by various agents according to the invention and the results obtained thereby.
Streptococcus sanguis strain 34 (originally derived from human dental plaque), and Actinomyces viscosus Tl4V were grown in a medium containing the dialyzable portion of Trypticase and Yeast Extract, supplemented with salts and a carbon source, as follows: A concentrated stock solution (20×, to make 10 liters of growth medium) containing Trypticase Peptone (BBL, 170 grams) and Yeast Extract (40 grams) as prepared in a liter of distilled water. This solution was subsequently ultrafiltered in an Amicon model DC-2 hollow fiber ultrafiltration cell, using an HlP10-20 hollow fiber cartridge (molecular weight cut off of 10,000 daltons), and the filtrate (that material of <10,000 daltons molecular weight) saved. The material was concentrated to a final volume of approximately 100 ml, and then reconstituted to one liter, after which the procedure was repeated for a total of three cycles, saving the filtrates at each step. The filtrates were collected into a vessel chilled on ice, combined, and the total volume measured. This stock solution was distributed in aliquots sufficient to make one liter of medium, and stored at -20° C. until used.
To prepare the growth medium, the appropriate volume of the 10× stock Trypticase-Yeast Extract stock solution was thawed, and to it added (in grams per liter): NaCl, 5, and K2 HPO4, 2.5, and the volume adjusted to 1 liter with distilled water. The medium was sterilized by autoclaving. Where indicated, glucose was added as a carbon source to give a final concentration of 0.2%. Initially, this was done by aseptically adding filter-sterilized glucose solutions to the autoclaved medium. For later experiments, glucose was added to the growth medium prior to sterilization.
Streptococci were grown in medium containing 0.2% glucose. Starter cultures were prepared by inoculation from a frozen stock culture, and incubated overnight at 37° C. under aerobic (not anaerobic) conditions. This starter culture was used as a 0.5-1.0% inoculum to inoculate larger quantities of medium (100 ml-1 liter), which were subsequently incubated for 16 hours at 37° C. Growth conditions were similar for the actinomycete, except that they were grown under an anaerobic environment (10% hydrogen-5% carbon dioxide, and 85% nitrogen). The starter culture was incubated for 24-48 hours, but the larger cultures required 48 hours incubation.
After growth, the cells were collected by centrifugation (10,000 x g, 15 minutes, 4° C.) and washed three times in PBS (phosphate-buffered saline, 0.025 M, pH 8.0 containing 1.46g NaCl per liter). The cells were then suspended in PBS such that when the stock cell suspension was diluted 1:10, it would produce an Absorbance at 660 nm of between 0.22-0.24, equivalent to an initial Absorbance of 2.2-2.4. The cells were stored on ice for use during the day, but warmed to ambient temperature before initiation of coaggregation. Residual cells were stored for further use by resuspension in a solution of 50% glycerol in water, and stored at 4° C. On the day of use, the cells were then collected by centrifugation, washed twice with PBS, and the trubidity adjusted as described above.
Assays were performed in a final volume of 1.0 ml in 190×75 mm disposable culture tubes, in duplicate. Controls consisted of 0.8 ml of either cell suspension, and 0.2 ml PBS. The coaggregating mixtures contained 0.4 ml of each cell suspension, and PBS to make 1.0 ml. Inhibitors were added from stock solutions to give the desired final concentrations, and, where necessary, the salt concentrations adjusted using a double-strength (2X) PBS solution. The mixtures were mixed on a Vortex mixer for 10 seconds at a speed setting of 6, incubated at ambient temperature for 10 minutes, vortexed again, and allowed to stand for 2 hours. […]

[1] = average of two independent experiments

| Molecule | IC50 (Actinomyces viscosus, 2 h) [mM] | Concentration to effect 50% inhibition of coaggregation [1] [%] | other results |
| --- | --- | --- | --- |
| O=C(O)[C@H](O)[C@@H](O)[C@H](O[C@@H]1O[C@H](CO)[C@H](O)[C@H](O)[C@H]1O)[C@H](O)CO [Lactobionic acid, 4-[beta-D-galactosido]-D-gluconic acid] | 3 to 4 |  | Rebound of coaggregation on increasing concentration: then rebounds; Rebound of coaggregation on increasing concentration (listed as lactobionic acid): rebound effect; Inhibition of coaggregation at the higher concentration (concentration increased up to 100 mM): 10% |
| Agar [reference compound] |  | > 0.2 | Inhibition of coaggregation (in words): did not demonstrate inhibition |
| OC[C@H]1OC(O)C[C@@H](O)[C@H]1O (stereo partly drawn) [2-deoxy-D-galactose, reference compound] | 20 |  |  |
| Agarose [reference compound] |  | > 0.2 | Inhibition of coaggregation (in words): did not demonstrate inhibition |
| Chondroitin sulfate |  | 4 | Inhibition of coaggregation at 4% (at 4%): ~50%; Inhibition of coaggregation (in words): substantial inhibition |
| Soluble starch [reference compound] |  |  | Inhibition of coaggregation at 1.0% (at 1.0%, average of two independent experiments): 8%; Inhibition of coaggregation (in words): poor inhibition |
| O=C[C@H](O)[C@@H](O)[C@H](O)[C@H](O)CO [Glucose, reference compound] | > 100 |  |  |
| Polygalacturonic acid |  | 0.1 |  |
| OC[C@H]1O[C@@H](O[C@H]2[C@H](O)[C@@H](O)C(O)O[C@@H]2CO)[C@H](O)[C@@H](O)[C@H]1O (stereo partly shown) [Lactose, reference compound] | 3.6 |  |  |
| Xanthan gum |  | 0.05 |  |
| OC[C@H]1O[C@@](CO)(O[C@H]2O[C@H](CO)[C@@H](O)[C@H](O)[C@H]2O)[C@@H](O)[C@@H]1O [Sucrose, reference compound] | > 100 |  |  |
| Sodium alginate |  |  | Inhibition of coaggregation at 0.5% (at 0.5%, average of two independent experiments): 32%; Inhibition of coaggregation (in words): substantial inhibition |
| O=C[C@H](O)[C@@H](O)[C@@H](O)[C@H](O)CO [Galactose, reference compound] | 22 |  |  |
| O=C[C@@H](O)[C@@H](O)[C@H](O)[C@H](O)CO [Mannose, reference compound] | > 100 |  |  |
| N[C@H]1C(O)O[C@H](CO)[C@H](O)[C@@H]1O (stereo partly shown) [Galactoseamine, reference compound] |  |  | IC50 (Table 1 carbohydrates, 2 hours, ambient temperature, average of independent experiments in duplicate (lactose n=13, galactose n=6)): 35 mM |
| O=C[C@H](O)[C@@H](O)[C@H](O)[C@H](O)C(=O)O [Glucuronic acid] | 15 |  | Rebound of coaggregation on increasing concentration: then rebounds |
| OC[C@H]1O[C@H](O[C@H]2O[C@H](CO)[C@@H](O)[C@H](O)[C@H]2O)[C@H](O)[C@@H](O)[C@@H]1O [Trehalose, reference compound] | > 100 |  |  |
| Guar gum |  | 0.15 |  |
| C[C@H]1OC(O)[C@H](O)[C@@H](O)[C@H]1O (stereo partly drawn) [D-Fructose (6-deoxy-D-galactose), 6-deoxy-D-galactose, reference compound] | 20 |  |  |
| OC[C@H]1O[C@@H](O[C@@H]2[C@@H](CO)OC(O)(CO)[C@H]2O)[C@H](O)[C@@H](O)[C@H]1O (mixture of isomers) [Lactulose, reference compound] | 35 |  |  |
| Pectin |  | 0.8 | Inhibition of coaggregation at 0.8% (at 0.8%): ~50%; Inhibition of coaggregation (in words): substantial inhibition |
| OC[C@H]1O[C@H](O[C@H]2[C@H](O)[C@@H](O)[C@H](O)O[C@@H]2CO)[C@H](O)[C@@H](O)[C@@H]1O [Maltose, reference compound] | > 100 |  |  |

— patent US4855128A, “Saccharide inhibition of dental plaque” (priority 1988, dated 1989)
